Test results published in publication PMC9643456, “Matching amino acids membrane preference profile to improve activity of antimicrobial peptides” (Communications Biology, 2022).
≈ marks a conversion by molar mass, not a printed value. Square brackets hold non-standard residues; d marks the D form. Peptide text beside a SMILES is read from it.

Experiments:
Experiment in all cases: microbe, parasite or virus in culture
A. baumannii strains = tested on: A. baumannii strains
MDR P. aeruginosa = tested on: MDR P. aeruginosa
How it was run: (§1)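 Broth microdilution per CLSI in cation-adjusted Mueller–Hinton broth with calcium (50 mg/L) and magnesium (10 mg/L); midlog bacteria at final 5 × 10^5 CFU/ml, 18 h at 37 °C. MIC is the lowest peptide concentration without visible turbidity; triplicate, with meropenem and colistin as control antibiotics.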

MDR E. faecalis = tested on: MDR E. faecalis
How it was run: as §1

MDR S. aureus = tested on: MDR S. aureus
How it was run: as §1

MDR A. baumannii = tested on: MDR A. baumannii
How it was run: as §1

[1] = CAMHB plus 0.2% bovine serum albumin and 0.01% acetic acid, values marked * in Table 2

CC[C@@H](C)[C@@H](NC(=O)[C@@H](Cc1c[nH]c2ccccc12)NC(=O)[C@H](NC(=O)[C@@H](CC(C)C)NC(=O)[C@H](N)Cc1c[nH]c2ccccc12)C(C)C)C(=O)N[C@H](Cc1c[nH]c2ccccc12)C(=O)N[C@H](CCCNC(=N)N)C(=O)N[C@H](CCCNC(=N)N)C(=O)N[C@H](CCCNC(=N)N)C(N)=O [WCopW29] (H-[dW][dL][dV][dW][dI][dW][dR][dR][dR]-NH2)
Number of A. baumannii strains at MIC (μM) 0.63 (A. baumannii strains; of 30 strains): 3
Number of A. baumannii strains at MIC (μM) 1.25 (A. baumannii strains; of 30 strains): 25
Number of A. baumannii strains at MIC (μM) 2.5 (A. baumannii strains; of 30 strains): 2
Number of A. baumannii strains at MIC (μM) 5 (A. baumannii strains; of 30 strains): 0
Number of A. baumannii strains at MIC (μM) 10 (A. baumannii strains; of 30 strains): 0
Number of A. baumannii strains at MIC (μM) ≤0.31 (A. baumannii strains; of 30 strains): 0
Number of A. baumannii strains at MIC (μM) ≥20 (A. baumannii strains; of 30 strains): 0
MIC, A. baumannii ATCC 17978 (A. baumannii strains; strains, 18 h): 2.5 µM (≈ 3.42 µg/mL)
MIC, A. baumannii ATCC BBA 1605 (A. baumannii strains; strains, 18 h): 0.63 µM (≈ 0.863 µg/mL)
MIC, A. baumannii Isolated strain 1 (A. baumannii strains; strains, 18 h): 1.25 µM (≈ 1.71 µg/mL)
MIC, A. baumannii Isolated strain 3 (A. baumannii strains; strains, 18 h): 2.5 µM (≈ 3.42 µg/mL)
MIC, A. baumannii Isolated strain 6 (A. baumannii strains; strains, 18 h): 1.25 µM (≈ 1.71 µg/mL)
MIC, A. baumannii Isolated strain 10 (A. baumannii strains; strains, 18 h): 1.25 µM (≈ 1.71 µg/mL)
MIC, A. baumannii Isolated strain 14 (A. baumannii strains; strains, 18 h): 1.25 µM (≈ 1.71 µg/mL)
MIC, A. baumannii Isolated strain 15 (A. baumannii strains; strains, 18 h): 1.25 µM (≈ 1.71 µg/mL)
MIC, A. baumannii Isolated strain 16 (A. baumannii strains; strains, 18 h): 1.25 µM (≈ 1.71 µg/mL)
MIC, A. baumannii Isolated strain 19 (A. baumannii strains; strains, 18 h): 1.25 µM (≈ 1.71 µg/mL)
MIC, A. baumannii Isolated strain 22 (A. baumannii strains; strains, 18 h): 1.25 µM (≈ 1.71 µg/mL)
MIC, A. baumannii Isolated strain 39 (A. baumannii strains; strains, 18 h): 1.25 µM (≈ 1.71 µg/mL)
MIC, A. baumannii Isolated strain 44 (A. baumannii strains; strains, 18 h): 1.25 µM (≈ 1.71 µg/mL)
MIC, A. baumannii Isolated strain 66 (A. baumannii strains; strains, 18 h): 1.25 µM (≈ 1.71 µg/mL)
MIC, A. baumannii Isolated strain 68 (A. baumannii strains; strains, 18 h): 1.25 µM (≈ 1.71 µg/mL)
MIC, A. baumannii Isolated strain 69 (A. baumannii strains; strains, 18 h): 1.25 µM (≈ 1.71 µg/mL)
MIC, A. baumannii Isolated strain 71 (A. baumannii strains; strains, 18 h): 1.25 µM (≈ 1.71 µg/mL)
MIC, A. baumannii Isolated strain 76 (A. baumannii strains; strains, 18 h): 1.25 µM (≈ 1.71 µg/mL)
MIC, A. baumannii Isolated strain 80 (A. baumannii strains; strains, 18 h): 0.63 µM (≈ 0.863 µg/mL)
MIC, A. baumannii Isolated strain 82 (A. baumannii strains; strains, 18 h): 1.25 µM (≈ 1.71 µg/mL)
MIC, A. baumannii Isolated strain 86 (A. baumannii strains; strains, 18 h): 0.63 µM (≈ 0.863 µg/mL)
MIC, A. baumannii Isolated strain 89 (A. baumannii strains; strains, 18 h): 1.25 µM (≈ 1.71 µg/mL)
MIC, A. baumannii Isolated strain 102 (A. baumannii strains; strains, 18 h): 1.25 µM (≈ 1.71 µg/mL)
MIC, A. baumannii Isolated strain 127 (A. baumannii strains; strains, 18 h): 1.25 µM (≈ 1.71 µg/mL)
MIC, A. baumannii Isolated strain 141 (A. baumannii strains; strains, 18 h): 1.25 µM (≈ 1.71 µg/mL)
MIC, A. baumannii Isolated strain 144 (A. baumannii strains; strains, 18 h): 1.25 µM (≈ 1.71 µg/mL)
MIC, A. baumannii Isolated strain 147 (A. baumannii strains; strains, 18 h): 1.25 µM (≈ 1.71 µg/mL)
MIC, A. baumannii Isolated strain 152 (A. baumannii strains; strains, 18 h): 1.25 µM (≈ 1.71 µg/mL)
MIC, A. baumannii KCCM 40203 (A. baumannii strains; strains, 18 h): 1.25 µM (≈ 1.71 µg/mL)
MIC, A. baumannii NCCP 14654 (A. baumannii strains; strains, 18 h): 1.25 µM (≈ 1.71 µg/mL)
MIC at different cfu/ml, MDR P. aeruginosa (MDR P. aeruginosa; 2 × 10^8 cfu/ml (x400)): 5 µM (≈ 6.85 µg/mL)
MIC at killing kinetics condition, P. aeruginosa CCARM 2180 (MDR P. aeruginosa; 5 x 10^5 cfu/ml, PBS): 5 µM (≈ 6.85 µg/mL)
MIC in 0.2% albumin and 0.01% AcOH added CLSI standard condition, MDR P. aeruginosa (MDR P. aeruginosa; [1]): 5 µM
MIC at different cfu/ml, MDR E. faecalis (MDR E. faecalis; 2 × 10^8 cfu/ml (x400)): 2.5 µM (≈ 3.42 µg/mL)
MIC at killing kinetics condition, E. faecalis ATCC 51575 (MDR E. faecalis; 5 x 10^5 cfu/ml, PBS): 1.25 µM (≈ 1.71 µg/mL)
MIC in 0.2% albumin and 0.01% AcOH added CLSI standard condition, MDR E. faecalis (MDR E. faecalis; [1]): 0.31 µM
Minimum inhibitory concentrations, MDR E. faecalis (MDR E. faecalis; CLSI broth microdilution, CAMHB with 50 mg/L Ca2+, 10 mg/L Mg2+, 5 × 10^5 CFU/ml, 18 h 37 °C, triplicate, strain ATCC 51575): 1.25 µM (≈ 1.71 µg/mL)
MIC at different cfu/ml, MDR S. aureus (MDR S. aureus; 1 × 10^10 cfu/ml (x2000)): 5 µM (≈ 6.85 µg/mL)
MIC at different cfu/ml, MDR S. aureus (MDR S. aureus; 2 × 10^8 cfu/ml (x400)): 2.5 µM (≈ 3.42 µg/mL)
MIC at killing kinetics condition, S. aureus KCCM 40510 (MDR S. aureus; 5 x 10^5 cfu/ml, PBS): 1.25 µM (≈ 1.71 µg/mL)
MIC in 0.2% albumin and 0.01% AcOH added CLSI standard condition, MDR S. aureus (MDR S. aureus; [1]): 0.31 µM
Minimum inhibitory concentrations, MDR S. aureus (MDR S. aureus; CLSI broth microdilution, CAMHB with 50 mg/L Ca2+, 10 mg/L Mg2+, 5 × 10^5 CFU/ml, 18 h 37 °C, triplicate, strain KCCM 40510): 1.25 µM (≈ 1.71 µg/mL)
Increase of MIC when the S. aureus concentration was increased 200-fold (MDR S. aureus; S. aureus): twofold
MIC at TM potential condition, S. aureus KCCM 40510 (MDR S. aureus; bacteria OD 0.1 (5 x 10^7 cfu/ml), CAMHB, 1% DMSO): 2 µM (≈ 2.74 µg/mL)
MIC at different cfu/ml, MDR A. baumannii (MDR A. baumannii; 1 × 10^10 cfu/ml (x2000)): 10 µM (≈ 13.7 µg/mL)
MIC at different cfu/ml, MDR A. baumannii (MDR A. baumannii; 2 × 10^8 cfu/ml (x400)): 2.5 µM (≈ 3.42 µg/mL)
MIC at killing kinetics condition, A. baumannii ATCC BAA 1605 (MDR A. baumannii; 5 x 10^5 cfu/ml, PBS): 0.63 µM (≈ 0.863 µg/mL)
